From ChEMBL document CHEMBL1146163 (Bioorg Med Chem Lett, 2006) come the findings set out here.

One may read the Tmax as the time at which the peak concentration occurs. Broadly, the ED50 is the dose that gives a 50% effect, or the effect in half of the subjects. Usually half-life stands for the time needed for the level to fall by half in the phase considered. Usually clearance stands for a measure of how efficiently the substance is removed, as volume per time. The bioavailability is the share of a dose that reaches the circulation, judged against a reference dose that is usually intravenous. Usually EC50 stands for the concentration that produces a half-maximal response. The term IC50 denotes the concentration needed to halve the response being measured.

SMILES strings stand for the structures. Activity calls are given as the source filed them.

The target in series [1] is T1, Peroxisome proliferator-activated receptor alpha (Homo sapiens) (UniProt Q07869).
T1 sequence (whole entry): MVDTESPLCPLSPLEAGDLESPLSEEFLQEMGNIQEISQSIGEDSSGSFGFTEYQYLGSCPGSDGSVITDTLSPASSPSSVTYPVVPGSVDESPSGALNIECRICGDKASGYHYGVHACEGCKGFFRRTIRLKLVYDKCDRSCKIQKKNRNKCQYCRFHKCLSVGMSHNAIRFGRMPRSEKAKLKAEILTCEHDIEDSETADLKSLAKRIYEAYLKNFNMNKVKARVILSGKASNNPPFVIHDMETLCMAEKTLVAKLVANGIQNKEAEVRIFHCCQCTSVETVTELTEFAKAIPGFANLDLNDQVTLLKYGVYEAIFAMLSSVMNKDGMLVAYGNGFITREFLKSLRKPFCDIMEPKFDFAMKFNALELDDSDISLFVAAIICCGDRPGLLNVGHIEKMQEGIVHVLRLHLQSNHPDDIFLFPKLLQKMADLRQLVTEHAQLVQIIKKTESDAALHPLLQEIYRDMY
In words: Activity at human PPARalpha expressed in CV1 cells using GAL4 chimeric system relative to control. It is filed as cell-based. As to conditions: CV-1.

Series [2] has as its target T1, Peroxisome proliferator-activated receptor alpha (Homo sapiens). In words: (§1) Displacement of tritium labeled ligand from human PPARalpha by SPA assay.
A short description of series [3]: Tmax in F344 rat at 10 mg/kg, po. It is filed as ADME, organism-based. As to conditions: in vivo. Details: dose 10 mg/kg, route oral.
Series [4] relates to Rattus norvegicus. In words: Reduction of plasma triglyceride level in ZDF rat at 1 mg/kg, po after 7 days relative to control. In kind it is functional. As to conditions: 168 h.
Series [5] can be described thus: Half life in F344 rat at 1 mg/kg, iv. In kind it is ADME, organism-based. Details: dose 1 mg/kg, route intravenous. Conditions: in vivo.
The nature of series [6]: Clearance in Beagle dog at 1 mg/kg, iv. In kind it is ADME, organism-based, Canis lupus familiaris. Details: dose 1 mg/kg, route intravenous. Conditions: in vivo.
Series [7] can be described thus: Oral bioavailability in Beagle dog at 10 mg/kg, po. In kind it is ADME, organism-based, Canis lupus familiaris. As to conditions: in vivo.
The subject of a further series is Mus musculus. Put plainly: Reduction of glucose level in db/db mouse at 30 mg/kg, po after 7 days relative to control. Set-up: scale not given: the % may be the effect or the level left. In kind it is functional.
Series [8] can be described thus: Clearance in F344 rat at 1 mg/kg, iv. In kind it is ADME, organism-based. Details: dose 1 mg/kg, route intravenous. As to conditions: in vivo.
Series [9] can be described thus: Volume of distribution in F344 rat at 1 mg/kg, iv. In kind it is ADME, organism-based. Set-up: dose 1 mg/kg, route intravenous. As to conditions: in vivo, read-out: Vdss.
Series [10] can be described thus: Tmax in Beagle dog at 10 mg/kg, po. Set-up: dose 10 mg/kg, route oral. In kind it is ADME, organism-based, Canis lupus familiaris. As to conditions: in vivo.
The nature of series [11]: Oral bioavailability in F344 rat at 10 mg/kg, po. It is filed as ADME, organism-based. As to conditions: in vivo.
For series [12], the system named is Rattus norvegicus. In words: Effect on glucose normalization in po dosed ZDF rat after 7 days. In kind it is functional. Conditions: 168 h, read-out: MED.
Series [13] in a line: Half life in Beagle dog at 1 mg/kg, iv. As to conditions: in vivo. Set-up: dose 1 mg/kg, route intravenous. In kind it is ADME, organism-based, Canis lupus familiaris.
Series [14] can be described thus: Volume of distribution in Beagle dog at 1 mg/kg, iv. Set-up: dose 1 mg/kg, route intravenous. It is filed as ADME, organism-based, Canis lupus familiaris. Conditions: in vivo, read-out: Vdss.
The target in series [15] is T2, Peroxisome proliferator-activated receptor alpha (Homo sapiens, UniProt Q07869).
T2 sequence (Q07869 whole entry): T1 sequence (whole entry)
The description is as §1.

The target in series [16] is T3, Peroxisome proliferator-activated receptor gamma (Homo sapiens, UniProt P37231).
T3 sequence (P37231 whole entry): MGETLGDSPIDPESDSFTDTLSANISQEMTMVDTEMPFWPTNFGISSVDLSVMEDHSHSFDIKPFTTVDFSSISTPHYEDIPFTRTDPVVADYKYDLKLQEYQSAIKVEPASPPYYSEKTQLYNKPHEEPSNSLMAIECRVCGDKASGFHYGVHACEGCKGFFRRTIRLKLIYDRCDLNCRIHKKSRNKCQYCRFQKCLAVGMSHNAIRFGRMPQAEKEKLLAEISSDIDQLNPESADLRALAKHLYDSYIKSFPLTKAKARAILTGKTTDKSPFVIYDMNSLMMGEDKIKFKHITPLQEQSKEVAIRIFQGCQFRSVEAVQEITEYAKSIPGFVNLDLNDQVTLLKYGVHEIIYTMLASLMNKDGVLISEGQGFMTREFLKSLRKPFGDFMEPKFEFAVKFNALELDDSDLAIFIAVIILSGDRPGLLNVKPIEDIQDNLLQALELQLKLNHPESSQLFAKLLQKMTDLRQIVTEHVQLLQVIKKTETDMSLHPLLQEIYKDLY
Description: Displacement of tritium labeled ligand from human PPARgamma by SPA assay

Series [17] deals with T4, Peroxisome proliferator-activated receptor delta (Homo sapiens, UniProt Q03181).
T4 sequence (Q03181 whole entry): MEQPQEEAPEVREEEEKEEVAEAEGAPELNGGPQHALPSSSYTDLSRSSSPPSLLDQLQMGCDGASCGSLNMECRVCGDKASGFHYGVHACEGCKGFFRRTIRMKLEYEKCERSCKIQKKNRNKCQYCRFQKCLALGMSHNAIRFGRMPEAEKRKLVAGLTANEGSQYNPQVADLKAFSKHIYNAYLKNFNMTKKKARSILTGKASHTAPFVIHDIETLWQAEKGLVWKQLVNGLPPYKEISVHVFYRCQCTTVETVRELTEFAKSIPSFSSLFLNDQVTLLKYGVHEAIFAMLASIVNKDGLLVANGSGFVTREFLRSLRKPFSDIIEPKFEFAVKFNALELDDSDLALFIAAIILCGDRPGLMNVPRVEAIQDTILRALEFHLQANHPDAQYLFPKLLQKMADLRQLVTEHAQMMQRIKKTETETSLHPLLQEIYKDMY
Put plainly: Activity at PPARdelta.

Series [18] has as its target T5, Peroxisome proliferator-activated receptor delta (Homo sapiens) (UniProt Q03181).
T5 sequence (whole entry): T4 sequence (Q03181 whole entry)
Put plainly: Activity at human PPARdelta expressed in CV1 cells by cotransfection assay relative to control. In kind it is cell-based. As to conditions: CV-1.

The test system of series [19] is Rattus norvegicus. In words: Reduction of glucose level in ZDF rat at 1 mg/kg, po after 7 days relative to control. In kind it is functional. Set-up: scale not given: the % may be the effect or the level left.

Compound `Cc1oc(-c2ccc(-c3ccccc3)cc2)nc1CCOc1ccc(CCC(=O)O)c2c1CCN(C(=O)OCC(C)(C)C)C2` [listing 1 of 2 here] showed an Efficacy in series [1] of 18%. In series [2], the result was inactive and the Efficacy was less than 20%.

In the case of `CCCOC(=O)N1CCc2c(OCCc3nc(-c4ccc(-c5ccccc5)cc4)oc3C)ccc(CCC(=O)[O-])c2C1.[Na+]`, the Tmax in series [3] stood at 1 h; in [10], 4 h. The compound further had an ED50 with Rattus norvegicus [4] of 0.24 mg/kg. The half-life in [5] is 5 h; in series [13] it was 3.58 h. The values for the clearance in series [6] and in series [8] were 1.24 mL/min/kg and 1.37 mL/min/kg, respectively. In addition, the bioavailability in [7] is 37%; in [11] it was 35%. In the series on Mus musculus, this compound registered an Activity of 41%. The values for the Vd in series [9] and in [14] were 0.59 L/kg and 0.38 L/kg, respectively. In addition, in the series on Rattus norvegicus [12], the minimal effective dose was determined as 0.19 mg/kg.

`CC(C)(Oc1ccc(C(=O)c2ccc(Cl)cc2)cc1)C(=O)O` [FENOFIBRIC ACID] showed an Efficacy in series [1] of 75%. Moreover, in [15], the EC50 is more than 10000 nM and the IC50 is more than 10000 nM.

Consider `Cc1oc(-c2ccccc2)nc1CCOc1ccc(CCC(=O)O)c2c1CCN(C(=O)OCC(C)C)C2`, for which the Efficacy in [1] came to 40%. In [15], this compound registered an EC50 of 1720 nM and an IC50 of 3420 nM. In series [16], this compound had an EC50 of 8 nM and an IC50 of 17 nM. The compound further showed an Activity with Mus musculus of 27%. The minimal effective dose in the series with Rattus norvegicus [12] came out at 0.25 mg/kg.

As for `Cc1oc(-c2ccc(-c3ccccc3)cc2)nc1CCOc1ccc(CCC(=O)O)c2c1CCN(C(=O)OCC(C)(C)C)C2` [listing 2 of 2 here], in [16], it took 9 nM to reach a half-maximal effect (EC50) and the IC50 is 33 nM.

`Cc1oc(-c2ccccc2)nc1CCOc1ccc(C[C@H](Nc2ccccc2C(=O)c2ccccc2)C(=O)O)cc1`: in [1], the Efficacy is 66%.

Consider `CCCOC(=O)N1CCc2c(OCCc3nc(-c4ccc(-c5ccccc5)cc4)oc3C)ccc(CCC(=O)O)c2C1` [listing 1 of 2 here], for which the EC50 in [15] is 2390 nM; in series [16], 3 nM; in series [17], 2750 nM. Moreover, in series [16], the IC50 was determined as 21 nM.

In series [15], `CCCOC(=O)N1CCc2c(OCCc3nc(-c4ccccc4)oc3C)ccc(CCC(=O)O)c2C1` [listing 1 of 2 here] gave an EC50 of 561 nM and an IC50 of 4680 nM. For the same compound, in [16], a half-maximal effect (EC50) was put at 12 nM and the IC50 came to 11 nM. Also, the Activity in the series with Mus musculus was determined as 62%.

Take `Cc1oc(-c2ccc(-c3ccccc3)cc2)nc1CCOc1ccc(CCC(=O)O)c(CNC(=O)OC(C)C)c1`: the Efficacy in series [1] came out at 52%.

For `CCCOC(=O)N1CCc2c(OCCc3nc(-c4ccc(-c5ccccc5)cc4)oc3C)ccc(CCC(=O)O)c2C1` [listing 2 of 2 here], the values for the Efficacy in series [1] and in [18] were 27% and 36%, respectively. Also, in series [2], the result was inactive.

Consider `Cc1oc(-c2ccc(-c3ccccc3)cc2)nc1CCOc1ccc(CCC(=O)[O-])c2c1CCN(C(=O)OCC(C)(C)C)C2.[Na+]`, for which the values for the Activity in the series with Rattus norvegicus [19] and in the series on Mus musculus were 23% and 49%, respectively.

Regarding `CCCOC(=O)N1CCc2c(OCCc3nc(-c4ccccc4)oc3C)ccc(CCC(=O)O)c2C1` [listing 2 of 2 here], the Efficacy in series [1] was 47%.

`CN(CCOc1ccc(CC2SC(=O)NC2=O)cc1)c1ccccn1` (stereo not drawn) [ROSIGLITAZONE] came in with an Activity in the series on Mus musculus of 29%. Besides, the minimal effective dose with Rattus norvegicus [12] came to 0.25 mg/kg.

In series [1], `Cc1c(C)c2c(c(C)c1O)CCC(C)(COc1ccc(CC3SC(=O)NC3=O)cc1)O2` (stereo not drawn) had an Efficacy of 0%. Besides, the result in [2] was inactive.

`C#CCOC(=O)N1CCc2c(OCCc3nc(-c4ccccc4)oc3C)ccc(CCC(=O)O)c2C1`: the Efficacy in series [1] amounted to 38%; in series [18], 65%. For the same compound, the EC50 in series [15] amounted to 2780 nM; in series [16], 77 nM; in [17], 3020 nM. Also, the IC50 in [15] amounted to 8400 nM; in series [16], 24 nM. The Activity in the series with Mus musculus came to 37%.

For `CCCOC(=O)N1CCc2c(OCCc3nc(-c4ccccc4)oc3C)ccc(CCC(=O)[O-])c2C1.[Na+]`, the minimal effective dose in the series with Rattus norvegicus [12] was 0.28 mg/kg.
